Laboratory results taken from ChEMBL document CHEMBL1153814, “Synthesis of 3-deoxypentacyclic triterpene derivatives as inhibitors of glycogen phosphorylase” (J Nat Prod, 2009).

Biological target: T1, Glycogen phosphorylase, muscle form (Oryctolagus cuniculus, UniProt P00489)
T1 sequence (P00489 whole entry): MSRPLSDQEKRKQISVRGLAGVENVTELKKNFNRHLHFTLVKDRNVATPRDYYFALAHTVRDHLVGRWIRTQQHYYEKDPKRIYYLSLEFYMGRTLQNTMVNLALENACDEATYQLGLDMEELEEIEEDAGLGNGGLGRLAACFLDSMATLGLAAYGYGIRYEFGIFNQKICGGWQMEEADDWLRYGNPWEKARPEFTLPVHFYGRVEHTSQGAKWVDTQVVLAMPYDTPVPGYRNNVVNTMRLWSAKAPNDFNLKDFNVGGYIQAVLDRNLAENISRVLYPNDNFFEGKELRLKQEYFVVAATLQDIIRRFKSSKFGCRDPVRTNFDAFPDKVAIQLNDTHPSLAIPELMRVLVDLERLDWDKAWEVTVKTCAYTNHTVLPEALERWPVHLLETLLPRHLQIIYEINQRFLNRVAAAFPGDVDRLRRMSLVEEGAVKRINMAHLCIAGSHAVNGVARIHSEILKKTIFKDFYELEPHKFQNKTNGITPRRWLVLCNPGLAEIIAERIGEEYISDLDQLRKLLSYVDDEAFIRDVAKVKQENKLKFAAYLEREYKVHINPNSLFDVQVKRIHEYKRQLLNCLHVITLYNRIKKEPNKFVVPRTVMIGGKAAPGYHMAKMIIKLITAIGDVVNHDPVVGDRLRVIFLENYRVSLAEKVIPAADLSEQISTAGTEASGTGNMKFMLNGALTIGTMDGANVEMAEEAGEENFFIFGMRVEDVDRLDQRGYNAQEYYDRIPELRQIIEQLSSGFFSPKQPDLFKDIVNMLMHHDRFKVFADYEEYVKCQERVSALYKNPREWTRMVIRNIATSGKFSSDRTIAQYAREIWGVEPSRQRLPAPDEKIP
Experiment: Inhibition of rabbit muscle glycogen phosphorylase assessed as release of phosphate from glucose-1-phosphate after 25 mins; call rule not given here

SMILES | IC50 | IC50 (read-out: IC50) [µM]
CC1(C)CC[C@]2(C(=O)O)CC[C@]3(C)C(=CC[C@@H]4[C@@]5(C)C[C@@H](OC(=O)CCC(=O)O)CC(C)(C)[C@@H]5CC[C@]43C)[C@@H]2C1 | Not Active | –
CC1CC[C@]2(C(=O)OCc3ccccc3)CC[C@]3(C)C(=CC[C@@H]4[C@@]5(C)C[C@H](O)CC(C)(C)[C@@H]5CC[C@]43C)[C@@H]2[C@H]1C (stereo partly specified) | – | 22.3
C[C@H]1[C@H](C)CC[C@]2(C(=O)OCc3ccccc3)CC[C@]3(C)C(=CC[C@@H]4[C@@]5(C)C[C@@H](O)CC(C)(C)[C@@H]5CC[C@]43C)[C@H]12 | – | 55.8
CCC(=O)O[C@H]1CC(C)(C)[C@@H]2CC[C@]3(C)[C@H](CC=C4[C@@H]5CC(C)(C)CC[C@]5(C(=O)OCc5ccccc5)CC[C@]43C)[C@@]2(C)C1 | – | 121
CCCC(=O)O[C@H]1CC(C)(C)[C@@H]2CC[C@]3(C)[C@H](CC=C4[C@@H]5CC(C)(C)CC[C@]5(C(=O)OCc5ccccc5)CC[C@]43C)[C@@]2(C)C1 | – | 108
CCCC(=O)O[C@H]1CC(C)(C)[C@@H]2CC[C@]3(C)[C@H](CC=C4[C@@H]5CC(C)(C)CC[C@]5(C(=O)O)CC[C@]43C)[C@@]2(C)C1 | – | 75.6
CC1(C)CC[C@]2(C(=O)OCc3ccccc3)CC[C@]3(C)C(=CC[C@@H]4[C@@]5(C)C[C@@H](OC(=O)c6ccccc6)CC(C)(C)[C@@H]5CC[C@]43C)[C@@H]2C1 | – | 48.4
CC1(C)CC[C@]2(C(=O)O)CC[C@]3(C)C(=CC[C@@H]4[C@@]5(C)C[C@@H](OC(=O)c6ccccc6)CC(C)(C)[C@@H]5CC[C@]43C)[C@@H]2C1 | – | 40.7
CC1(C)CC[C@]2(C(=O)OCc3ccccc3)CC[C@]3(C)C(=CC[C@@H]4[C@@]5(C)C[C@@H](OC(=O)CCC(=O)O)CC(C)(C)[C@@H]5CC[C@]43C)[C@@H]2C1 | – | 80.9
CC1(C)CC[C@]2(C(=O)OCCCCBr)CC[C@]3(C)C(=CC[C@@H]4[C@@]5(C)C[C@H](O)CC(C)(C)[C@@H]5CC[C@]43C)[C@@H]2C1 | – | 48.7
C[C@@H]1[C@H]2C3=CC[C@@H]4[C@@]5(C)C[C@@H](O)CC(C)(C)[C@@H]5CC[C@@]4(C)[C@]3(C)CC[C@@]2(C(=O)OCc2ccccc2)CCC1(C)C | – | 5.6
CC(=O)O[C@H]1CC(C)(C)[C@@H]2CC[C@]3(C)[C@H](CC=C4[C@@H]5CC(C)(C)CC[C@]5(C(=O)OCc5ccccc5)CC[C@]43C)[C@@]2(C)C1 | Not Active | –
C[C@H]1[C@H](C)CC[C@]2(C(=O)OCc3ccccc3)CC[C@]3(C)C(=CC[C@@H]4[C@@]5(C)C/C(=N\O)CC(C)(C)[C@@H]5CC[C@]43C)[C@H]12 | – | 20.2
CC1(C)CC[C@]2(C(=O)OCc3ccccc3)CC[C@]3(C)C(=CC[C@@H]4[C@@]5(C)C[C@H](O)CC(C)(C)[C@@H]5CC[C@]43C)[C@@H]2C1 | – | 4.2
CC1(C)CC[C@]2(C(=O)O)CC[C@]3(C)C(=CC[C@@H]4[C@@]5(C)C[C@@H](O)CC(C)(C)[C@@H]5CC[C@]43C)[C@@H]2C1 | – | 8.5
CCCCOC(=O)[C@]12CCC(C)(C)C[C@H]1C1=CC[C@@H]3[C@@]4(C)C[C@H](O)CC(C)(C)[C@@H]4CC[C@@]3(C)[C@]1(C)CC2 | – | 13.8
C=CCOC(=O)[C@]12CCC(C)(C)C[C@H]1C1=CC[C@@H]3[C@@]4(C)C[C@H](O)CC(C)(C)[C@@H]4CC[C@@]3(C)[C@]1(C)CC2 | – | 23.1
COC(=O)[C@]12CCC(C)(C)C[C@H]1C1=CC[C@@H]3[C@@]4(C)C[C@H](O)CC(C)(C)[C@@H]4CC[C@@]3(C)[C@]1(C)CC2 | – | 28.1

SMILES | IC50 | IC50 (read-out: IC50) [µM]
CCOC(=O)[C@]12CCC(C)(C)C[C@H]1C1=CC[C@@H]3[C@@]4(C)C[C@H](O)CC(C)(C)[C@@H]4CC[C@@]3(C)[C@]1(C)CC2 | – | 15.3
CCCOC(=O)[C@]12CCC(C)(C)C[C@H]1C1=CC[C@@H]3[C@@]4(C)C[C@H](O)CC(C)(C)[C@@H]4CC[C@@]3(C)[C@]1(C)CC2 | – | 27.3
C[C@H]1[C@H](C)CC[C@]2(C(=O)O)CC[C@]3(C)C(=CC[C@@H]4[C@@]5(C)C/C(=N\O)CC(C)(C)[C@@H]5CC[C@]43C)[C@H]12 | – | 14.7
CC1(C)CC[C@]2(C(=O)OCCBr)CC[C@]3(C)C(=CC[C@@H]4[C@@]5(C)C[C@H](O)CC(C)(C)[C@@H]5CC[C@]43C)[C@@H]2C1 | – | 25.4
CC1(C)CC[C@]2(C(=O)OCCCBr)CC[C@]3(C)C(=CC[C@@H]4[C@@]5(C)C[C@H](O)CC(C)(C)[C@@H]5CC[C@]43C)[C@@H]2C1 | – | 37.2
CC1(C)CC[C@]2(C(=O)OCc3ccccc3)CC[C@]3(C)C(=CC[C@@H]4[C@@]5(C)CC(=O)CC(C)(C)[C@@H]5CC[C@]43C)[C@@H]2C1 | – | 3.2
C[C@H]1[C@H](C)CC[C@]2(C(=O)OCc3ccccc3)CC[C@]3(C)C(=CC[C@@H]4[C@@]5(C)CC(=O)CC(C)(C)[C@@H]5CC[C@]43C)[C@H]12 | – | 24.2
CC1(C)CC[C@]2(C(=O)OCc3ccccc3)CC[C@]3(C)C(=CC[C@@H]4[C@@]5(C)C/C(=N\O)CC(C)(C)[C@@H]5CC[C@]43C)[C@@H]2C1 | – | 16.3
CCOC(=O)COC(=O)[C@]12CCC(C)(C)C[C@H]1C1=CC[C@@H]3[C@@]4(C)C[C@H](O)CC(C)(C)[C@@H]4CC[C@@]3(C)[C@]1(C)CC2 | – | 22.5
CC1(C)CC[C@]2(C(=O)O)CC[C@]3(C)C(=CC[C@@H]4[C@@]5(C)C/C(=N\O)CC(C)(C)[C@@H]5CC[C@]43C)[C@@H]2C1 | – | 13.1
CC(=O)O[C@H]1CC(C)(C)[C@@H]2CC[C@]3(C)[C@H](CC=C4[C@@H]5CC(C)(C)CC[C@]5(C(=O)O)CC[C@]43C)[C@@]2(C)C1 | – | 42.4
C[C@H]1[C@H](C)CC[C@]2(C(=O)O)CC[C@]3(C)C(=CC[C@@H]4[C@@]5(C)C[C@@H](O)CC(C)(C)[C@@H]5CC[C@]43C)[C@H]12 | – | 1.2
CCC(=O)O[C@H]1CC(C)(C)[C@@H]2CC[C@]3(C)[C@H](CC=C4[C@@H]5CC(C)(C)CC[C@]5(C(=O)O)CC[C@]43C)[C@@]2(C)C1 | – | 80.2
CC1(C)CC[C@]2(C(=O)O)CC[C@]3(C)C(=CC[C@@H]4[C@@]5(C)C[C@H](O)CC(C)(C)[C@@H]5CC[C@]43C)[C@@H]2C1 | – | 3.5
C[C@@H]1[C@H]2C3=CC[C@@H]4[C@@]5(C)C[C@H](O)CC(C)(C)[C@@H]5CC[C@@]4(C)[C@]3(C)CC[C@@]2(C(=O)O)CC[C@@H]1C | – | 5.5
CC1(C)CC[C@]2(C(=O)O)CC[C@]3(C)C(=CC[C@@H]4[C@@]5(C)CC(=O)CC(C)(C)[C@@H]5CC[C@]43C)[C@@H]2C1 | – | 14.9
C[C@H]1[C@H](C)CC[C@]2(C(=O)O)CC[C@]3(C)C(=CC[C@@H]4[C@@]5(C)CC(=O)CC(C)(C)[C@@H]5CC[C@]43C)[C@H]12 | – | 28.9
C[C@H]1[C@H](C)CC[C@]2(C(=O)O)CC[C@]3(C)C(=CC[C@@H]4[C@@]5(C)CC[C@H](O)C(C)(C)[C@@H]5CC[C@]43C)[C@H]12 [URSOLIC ACID] | – | 15.3
